According to patent US20230149358A1, “COMBINATION CANCER THERAPY WITH PENTAAZA MACROCYCLIC RING COMPLEX AND HORMONE THERAPY AGENT” (Galera Labs, LLC, priority 2020, published 2023):
Entries after “also recorded” stand apart in the source; their conditions may differ.

Key:
[1] = test system: Sirt3^−/−-MT-SIRT3^WT tumor cells; assay: Mammary allograft tumor growth (bioluminescence), Sirt3^−/−-MT-SIRT3^WT; format: in vivo; settings: Sirt3^−/−-MT-SIRT3^WT allografts, nude mice, IP
Method: (§1) Mice were subsequently injected with luciferin potassium (120 mg/kg) every week and signal intensity will be quantified. Error bars represent one SD from the mean.
(§2) These cell lines were subsequently infected with and selected to express either a SIRT3 wild-type (Sirt3^−/−-MT-SIRT3^WT) or deacetylation null (Sirt3^−/−-MT-SIRT3^DN) gene and a lenti-luciferase to assess tumor growth by bioluminescence. Allograft tumor mice were split into four groups: (1) control, untreated Sirt3^−/−-MT-SIRT3^DN; (2) GC4419 treated Sirt3^−/−-MT-SIRT3^DN; (3) control, untreated Sirt3^−/−-MT-SIRT3^WT; and (4) GC4419 treated Sirt3^−/−-MT-SIRT3^WT.

MCF7-MnSOD^K68Q cells = assay: Ki-67 staining, MCF7-MnSOD^K68Q cells; format: cell-based, human; settings: 5 μM GC4419 and/or 1 μM 4-hydroxy-Tam for 5 days
Method: (§3) MCF7-MnSOD^K68Q cells (in FIGS. 17a and 17b) and T47D-MnSOD^K68Q cells (in FIGS. 17c and 17d) were treated with 5 μM GC4419 and/or 1 μM 4-hydroxy-Tam for 5 days, and then stained for Ki-67 as well as DAPI. Quantifications of average Ki-67 intensity are shown in the bar graphs. In FIG. 17e, MCF7 and MCF7-HTR cells were implanted into both hind limbs of nude mice and tumor volumes were measured every 3 days for 6 weeks and the number of tumors that successfully implanted versus the total number of mice infected with MCF7 and MCF7-HTR as well as the average tumor weight and tumor size are shown. Representative images are shown. All experiments were done in triplicate. Error bars represent ±1 SEM. ***p<0.001.
(§4) Cells seeded on glass coverslips were fixed in 4% paraformaldehyde and then blocked with 1% BSA and 10% normal goat serum in 1×PBS. Cells were incubated with anti-Ki-67 (c-bioscience) antibody in 1×PBS followed by incubation with goat anti-rabbit IgG conjugated with Alexa Fluor 647 (Invitrogen) in 1×PBS with 5% goat serum. Cells were washed in 1×PBS, mounted, and imaged with a fluorescence microscope. Fluorescence images were captured using a laser scanning confocal microscope (Nikon A1R). The paired images in all the figures were collected at the same gain and offset settings. Post-collection processing was applied uniformly to all paired images.

MCF7-HTR cells [2] = assay: Clonogenic cell survival, hydroxy-Tam-resistant MCF7-HTR cells; format: cell-based, human; settings: 5 μM GC4419 for 5 days
Method: Clonogenic cell survival assay. For the clonogenic survival analysis, exponentially growing cells were replated using appropriate dilutions, and clonogenic survival was evaluated after 14 days in regular growth medium. Cells were stained with crystal violet, and colonies of >50 cells were counted and utilized to calculate clonogenic survival^46.
To test parameters indicative of oxidative stress, a clonogenic assay with hydroxy-Tam and antioxidant treatments was performed. Cells were plated at a density of 50,000 cells per 60-mm dish and treated with 1 μM hydroxy-Tam (Sigma) and 5 μM GC4419 (Galera Therapeutics) for a total of 120 h. This protocol was repeated with a fresh medium change every 24 h for 5 days. On day 6, the cells were trypsinized, counted, and replated in control medium using appropriate dilutions, and clonogenic survival was evaluated.

T47D-HTR cells = assay: Ki-67 staining, T47D-HTR cells; format: cell-based, human; settings: 5 μM GC4419 and/or 1 μM 4-hydroxy-Tam for 5 days
Source text: (§5) With respect to FIG. 16a, the data from FIG. 7i, where MCF7-HTR cells were stained for Ki-67, as well as DAPI, were counted with ImageJ and quantified for average Ki-67 intensity as shown in the bar graph. With respect to FIGS. 16b and 16c, T47D and T47D-HTR cells were stained for Ki-67 as well as DAPI, and particles in the nucleus were counted with ImageJ and quantified for average Ki-67 intensity as shown in the bar graph. In FIGS. 16d and 16e, MCF7-HTR cells, and in FIGS. 16f and 16g, T47D-HTR cells, were treated with 5 μM GC4419 and/or 1 μM 4-hydroxy-Tam for 5 days, and then stained for Ki-67 as well as DAPI. Quantifications of average Ki-67 intensity are shown in the bar graphs. All experiments were done in triplicate. Error bars represent ±1 SEM. ***p<0.001. Representative images are shown.
as §4, with “Post-collection processing was applied uniformly to all paired images.” left out

T47D-MnSOD^K68Q cells = assay: Ki-67 staining, T47D-MnSOD^K68Q cells; format: cell-based, human; settings: 5 μM GC4419 and/or 1 μM 4-hydroxy-Tam for 5 days
Method: as §3, §4

MCF7-Cispl-R cells = assay: SOX2 and OCT4 levels, MCF7-Cispl-R cells; format: cell-based, human; settings: MCF7-Cispl-R treated with GC4419; data not shown
Method: Aberrant HIF2α levels promote lineage plasticity, leading to chemoresistance and metastasis. […] Thus, MCF7 cells were selected for cisplatin resistance (Cispl-R) by 3 months of exposure to 5 μM Cispl.

MCF7-HTR cells [3] = assay: Ki-67 staining, MCF7-HTR cells; format: cell-based, human; settings: 5 μM GC4419 and/or 1 μM 4-hydroxy-Tam for 5 days
Source text: as §5
as §4, with “Post-collection processing was applied uniformly to all paired images.” left out

mice lacking Sirt3 = settings: IP 2 mg/kg, 30 minutes before IR; cited from earlier work
rat = rat model; cited from earlier work
LNCaP-ENZR cells = assay: Clonogenic cell survival, LNCaP-ENZR cells; format: cell-based; settings: ENZ with GC4419 (20 μM) for 5 days
Method: (§6) In FIG. 21(a), clonogenic cell survival experiments were performed in LNCaP-ENZR (left two bars) and LNCaP-MnSOD^K68Q (right two bars) treated with ENZ, with or without GC4419 (20 μM) for 5 days. […] Tumor volumes were measured three times a week for 46 days. For each group n=10. Error bars ±1 SEM. All experiments done in triplicate. **p<0.01.
To address whether there is a link between MnSOD-K68-Ac and ENZR, two ENZ sensitive prostate tumor cell lines were used, LNCaP or 22RV1, which were cultured in 5 μM of ENZ for 3 weeks and then continuously grown at 10 μM, using an established method^91 to select for ENZR cells. […] Since K68-Ac alters the surface charge at the MnSOD tetramerization interface, we assessed the oligomerization state of MnSOD in LNCaP-ENZR cells.

[4] = test system: Sirt3^−/−-MT-SIRT3^DN tumor cells; assay: Mammary allograft tumor growth (bioluminescence), Sirt3^−/−-MT-SIRT3^DN; format: in vivo; settings: Sirt3^−/−-MT-SIRT3^DN allografts, nude mice, IP every other day for five weeks
Method: as §1, §2

LNCaP-MnSOD^K68Q cells = assay: Clonogenic cell survival, LNCaP-MnSOD^K68Q cells; format: cell-based; settings: ENZ with GC4419 (20 μM) for 5 days
Method: as §6

Q: What does the source list for `[Cl][Mn][Cl].c1cc2nc(c1)CN[C@H]1CCCC[C@@H]1NCCN[C@H]1CCCC[C@@H]1NC2` [GC4419]?
A: allograft tumor growth [1]: no change in tumor growth was observed; Ki-67 staining (MCF7-MnSOD^K68Q cells): reversed the increase in Ki-67 IHC staining; also recorded: decreased Ki-67 levels; sensitivity to hydroxy-Tam (clonogenic cell survival) (MCF7-HTR cells [2]): became sensitive to hydroxy-Tam; Ki-67 staining (T47D-HTR cells): exhibited decreased Ki-67 IHC staining; also recorded: decreased Ki-67 levels; Ki-67 staining (T47D-MnSOD^K68Q cells): reversed the increase in Ki-67 IHC staining; also recorded: decreased Ki-67 levels; SOX2 and OCT4 levels (MCF7-Cispl-R cells): decreased SOX2 and OCT4 levels; Ki-67 staining (MCF7-HTR cells [3]): exhibited decreased Ki-67 IHC staining; liver damage (mice lacking Sirt3): attenuated liver damage; VEGFr inhibitor-induced pulmonary disease (rat): attenuate VEGFr inhibitor-induced pulmonary disease; tumor cell survival in the presence of ENZ (clonogenic) (LNCaP-ENZR cells): significant decrease in tumor cell survival in the presence of ENZ; also recorded: reversed the ENZR; allograft tumor growth [4]: significant decrease in tumor growth; also recorded: tumor growth is inhibited; ENZ resistance phenotype (clonogenic cell survival) (LNCaP-MnSOD^K68Q cells): converted to a sensitive phenotype; also recorded: reversed the ENZR
